From patent US8173788B2, “Peptide having ability to activate cancer-related gene” (priority 2005, dated 2012)
Where no end group is shown, it is not given here.

Legend:
cancer-related gene = assay: DNA chip analysis of cancer-related gene expression after treatment with the HPLC-purified peptide (Table 1); format: cell-based, human
Method: (§1) In this diagnosis method, cells or tissues of interest are treated with the peptide of the present invention as in the above-mentioned diagnosis method 1; thus the same specimen as in the diagnosis method 1 can be used. However, in this diagnosis method, the reverse transcription is conducted to generate a cDNA (first-strand cDNA) pool, which is complementary to the mRNA, by using total mRNA extracted from the cells or tissues treated with the peptide as a template and using oligo-dT primer having T7 RNA polymerase promoter region as a reverse primer. Then, after the second-strand cDNA synthesis, in vitro transcription (IVT) was conducted using T7 RNA polymerase and biotinylated rNTPs at 37° C. for 14 hr to yield biotin-labeled cRNA. The amount of the cRNA is measured with a spectrophotometer to confirm that at least […] of cRNA can be yielded.
(§2) The diagnosis method further includes processes for bringing this cRNA labeled with fluorescence dye or the like into contact with cDNA of a cancer-related gene which is immobilized on a plate for hybridization and for measuring the fluorescence intensity.
(§3) Thus, on the basis of the expression condition of a cancer-related gene, a tendency of canceration or malignancy of cancer can be determined.
(§4) An increase or decrease in the expression amount of a cancer-related gene is determined by comparing the expression level in a control. The cells and tissues used as the control are the same as those used in the diagnosis method 1.
(§5) Tables 1 and 2 show examples of cancer-related genes of which expression is increased and immune system genes of which expression is increased or decreased by the treatment with the peptide (HPLC-purified peptide) derived from cell membrane surfaces of human squamous-cell carcinoma cells UTC-8 (Deposition No.: FERM BP-08611, which is deposited with International Patent Organism Depositary, National Institute of Advanced Industrial Science and Technology).
(§6) The present inventor has verified the validity of this diagnosis method using 55000 cancer-related genes. When such a great number of cancer-related genes are used, DNA chip technology is preferably used. In the DNA chip technology, each DNA of the cancer-related genes is immobilized so as to be arrayed on a slide; the above-mentioned labeled cRNA solution is dropped into the slide; the cRNA which is not hybridized is removed by washing; and fluorescence intensity of each gene position is detected by a scanner. The results are compared with the result which is obtained by conducting the same process using the above-mentioned control solution. Thus, cancer-related genes of which expression is increased or decreased when cells or tissues are treated with the peptide of the present invention can be exhaustively analyzed.

immune system gene = assay: DNA chip analysis of immune system gene expression after treatment with the HPLC-purified peptide (Table 2); format: cell-based, human
Method: as §1, §2, §3, §4, §5, §6

QPQFGRRMESK [HPLC-purified peptide, peptide (HPLC-purified peptide) derived from cell membrane surfaces of human squamous-cell carcinoma cells UTC-8]
Fold Change (cancer-related gene; gene AF040963 MXD4): 2.357
Fold Change (cancer-related gene; gene D16431 HDGF): 3.596
Fold Change (cancer-related gene; gene D26120 splicing factor 1): 2.833
Fold Change (cancer-related gene; gene K03218 SRC, v-src sarcoma viral oncogene homolog): 3.912
Fold Change (cancer-related gene; gene M13150 MAS1): 2.07
Fold Change (cancer-related gene; gene M32977 VEGF): 2.457
Fold Change (cancer-related gene; gene M60119 HIVEP2): 2.205
Fold Change (cancer-related gene; gene M62829 EGR1): 2.105
Fold Change (cancer-related gene; gene M83221 RELB): 2.351
Fold Change (cancer-related gene; gene M95712 BRAF): 3.034
Fold Change (cancer-related gene; gene NM_000753 PDE3B): 2.741
Fold Change (cancer-related gene; gene NM_001201 BMP3): 3.736
Fold Change (cancer-related gene; gene NM_001402 EEF1A1): 2.405
Fold Change (cancer-related gene; gene NM_001419 ELAVL1): 2.95
Fold Change (cancer-related gene; gene NM_001511 CXCL1): 2.477
Fold Change (cancer-related gene; gene NM_001570 IRAK2): 2.24
Fold Change (cancer-related gene; gene NM_001665 ARHG): 2.111
Fold Change (cancer-related gene; gene NM_002357 MAD): 2.397
Fold Change (cancer-related gene; gene NM_002613 PDPK1): 2.866
Fold Change (cancer-related gene; gene NM_002712 PPP1R7): 2.697
Fold Change (cancer-related gene; gene NM_003017 SFRS3): 2.742
Fold Change (cancer-related gene; gene NM_003685 KHSRP): 2.04
Fold Change (cancer-related gene; gene NM_004204 PIGQ): 2.756
Fold Change (cancer-related gene; gene NM_004218 RAB11B, member RAS oncogene family): 2.102
Fold Change (cancer-related gene; gene NM_004723 ARHGEF2): 2.209
Fold Change (cancer-related gene; gene NM_004906 WTAP): 2.544
Fold Change (cancer-related gene; gene NM_005207 CRKL): 2.497
Fold Change (cancer-related gene; gene NM_005524 HES1): 2.395
Fold Change (cancer-related gene; gene NM_005730 CTDSP2, conserved gene amplified in osteosarcoma): 2.387
Fold Change (cancer-related gene; gene NM_005850 SF3B4): 3.023
Fold Change (cancer-related gene; gene NM_005937 MLLT6): 2.996
Fold Change (cancer-related gene; gene NM_006191 PA2G4): 2.002
Fold Change (cancer-related gene; gene NM_006318 putative glialblastoma cell differentiation-related): 2.098
Fold Change (cancer-related gene; gene NM_006694 JTB): 2.019
Fold Change (cancer-related gene; gene NM_006716 ASK, activator of S phase kinase): 2.23
Fold Change (cancer-related gene; gene NM_006842 splicing factor 3b, subunit 2, 145 kDa): 2.245
Fold Change (cancer-related gene; gene NM_007040 E1B-AP5): 2.433
Fold Change (cancer-related gene; gene NM_007279 U2AF2): 2.494
Fold Change (cancer-related gene; gene NM_012103 AUP1): 2.46
Fold Change (cancer-related gene; gene NM_014308 P101-PI3K): 2.849
Fold Change (cancer-related gene; gene NM_015714 G0S2): 2.481
Fold Change (cancer-related gene; gene NM_016263 FZR1): 2.466
Fold Change (cancer-related gene; gene U33819 MAZ): 2.093
Fold Change (cancer-related gene; gene X03663 CSF1R): 2.781
Fold Change (cancer-related gene; gene X54936 PGF): 3.576
Fold Change (cancer-related gene; gene X61498 NFKB2): 2.833
Fold Change (cancer-related gene; gene X78710 MTF1): 2.001
TDP (immune system gene; enhanced gene D10202 platelet-activating factor receptor): 1.506
TDP (immune system gene; enhanced gene J04130 chemokine (C-C motif) ligand 4): 7.341
TDP (immune system gene; enhanced gene K02770 interleukin 1, beta): 11.69
TDP (immune system gene; enhanced gene NM_000173 glycoprotein Ib (platelet), alpha polypeptide): 1.529
TDP (immune system gene; enhanced gene NM_000211 integrin, beta 2): 3.326
TDP (immune system gene; enhanced gene NM_001733 complement component 1, r subcomponent): 1.543
TDP (immune system gene; enhanced gene NM_002000 Fc fragment of IgA, receptor for): 1.871
TDP (immune system gene; enhanced gene NM_002969 mitogen-activated protein kinase 12): 1.53
TDP (immune system gene; enhanced gene NM_002983 chemokine (C-C motif) ligand 3): 1.542
TDP (immune system gene; enhanced gene NM_003199 transcription factor 4): 1.621
TDP (immune system gene; enhanced gene NM_006186 nuclear receptor subfamily 4, group A, member 2): 2.06
TDP (immune system gene; enhanced gene X03663 colony stimulating factor 1 receptor): 2.781
TDP (immune system gene; suppressed gene K01171 major histocompatibility complex, class II, DR alpha): 0.319
TDP (immune system gene; suppressed gene NM_000397 cytochrome b-245, beta polypeptide): 0.631
TDP (immune system gene; suppressed gene NM_001311 cysteine-rich protein 1 (intestinal)): 0.561
TDP (immune system gene; suppressed gene NM_001776 ectonucleoside triphosphate diphosphohydrolase 1): 0.646
TDP (immune system gene; suppressed gene NM_001783 CD79A antigen): 0.4
TDP (immune system gene; suppressed gene NM_002118 major histocompatibility complex, class II, DM beta): 0.335
TDP (immune system gene; suppressed gene NM_002121 major histocompatibility complex, class II, DP beta 1): 0.633
TDP (immune system gene; suppressed gene NM_002123 major histocompatibility complex, class II, DQ beta 1): 0.328
TDP (immune system gene; suppressed gene NM_002124 major histocompatibility complex, class II, DR beta 1): 0.502
TDP (immune system gene; suppressed gene NM_002258 killer cell lectin-like receptor subfamily B, member 1): 0.653
TDP (immune system gene; suppressed gene NM_002260 killer cell lectin-like receptor subfamily C, member 2): 0.603
TDP (immune system gene; suppressed gene NM_003891 protein Z, vitamin K-dependent plasma glycoprotein): 0.618
TDP (immune system gene; suppressed gene NM_004106 Fc fragment of IgE, high affinity I, receptor for, gamma polypeptide): 0.382
TDP (immune system gene; suppressed gene NM_004133 hepatocyte nuclear factor 4, gamma): 0.635
TDP (immune system gene; suppressed gene NM_004528 microsomal glutathione S-transferase 3): 0.561
TDP (immune system gene; suppressed gene NM_004636 sema domain, (semaphorin) 3B): 0.459
TDP (immune system gene; suppressed gene NM_004750 cytokine receptor-like factor 1): 0.626
TDP (immune system gene; suppressed gene NM_005545 immunoglobulin superfamily containing leucine-rich repeat): 0.579
TDP (immune system gene; suppressed gene NM_006120 major histocompatibility complex, class II, DM alpha): 0.298
TDP (immune system gene; suppressed gene NM_006864 leukocyte immunoglobulin-like receptor, subfamily B, member 3): 0.662
TDP (immune system gene; suppressed gene NM_007052 NADPH oxidase 1): 0.662
TDP (immune system gene; suppressed gene NM_014442 sialic acid binding Ig-like lectin 8): 0.641
TDP (immune system gene; suppressed gene NM_016523 killer cell lectin-like receptor subfamily F, member 1): 0.644
TDP (immune system gene; suppressed gene NM_018661 defensin, beta 103): 0.528
TDP (immune system gene; suppressed gene U77604 microsomal glutathione S-transferase 2): 0.349
TDP (immune system gene; suppressed gene Y00815 protein tyrosine phosphatase, receptor type, F): 0.475
